The target in one test is NRAS G12C (Homo sapiens (Human), UniProt P01111+P62937, G12C). Kind of test: Ras-Raf disruption/FRET/MOA assay (BRAF RBD, Cyclophilin A). The test is classed as biochemical. The note with it: read-out: NRAS G12C FRET data IC50. The method in brief:
(§1)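 Measured: compound-facilitated Cyclophilin A:Ras complex blocking RAF RBD binding. Conditions: 12.5 nM Ras-GMPPNP, 50 nM BRAF RBD, 25 μM CypA, 3 h plus 1.5 h detection. Output: IC50 from TR-FRET ratio.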

Another test concerns the target NRAS WT (Homo sapiens (Human), UniProt P01111+P62937). Described as above. The test is classed as biochemical. The method in brief: as §1
For a further test, the target named is KRAS G12V (Homo sapiens (Human), UniProt P01116+P62937, G12V). Described as above. It is filed as biochemical. Conditions: read-out: KRAS G12V FRET IC50. In short, it runs like this:
(§2)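 TR-FRET read after 1.5 h with 10 nM anti-His Eu-W1024 and 50 nM anti-GST APC, following 3 h at 25 °C of GMPPNP-loaded His6-Ras (12.5 nM), GST-BRAF RBD (50 nM) and Cyclophilin A (25 μM) with compound from 30 μM final, 10 points, 3-fold. IC50 reported; pH 7.3 HEPES, 100 mM NaCl.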

Another test has as its target KRAS G12S (Homo sapiens (Human), UniProt P01116+P62937, G12S). The test is described as above. The note with it: read-out: KRAS G12S FRET IC50. The test is classed as biochemical. In short, it runs like this: as §2
In another test the target is KRAS WT (Homo sapiens (Human), UniProt P01116+P62937). The description is as above. It is filed as biochemical. The note with it: read-out: KRAS WT FRET data IC50. In short, it runs like this: as §2
A further test deals with KRAS G12D (Homo sapiens (Human), UniProt P01116+P62937, G12D). The test is described as above. The note with it: read-out: KRAS G12D FRET IC50. The test is classed as biochemical. In short, it runs like this:
as §2

Another test concerns the target KRAS Q61H (Homo sapiens (Human), UniProt P01116+P62937, Q61H). The test is described as above. It is filed as biochemical. The method in brief:
as §2

A further test has as its target KRAS G13D (Homo sapiens (Human), UniProt P01116+P62937, G13D). Described as above. The test is classed as biochemical. Conditions: read-out: KRAS G13D FRET data IC50. In short, it runs like this: as §2
The next test deals with KRAS G12C (Homo sapiens (Human), UniProt P01116+P62937, G12C). The test is described as above. It is filed as biochemical. Conditions: read-out: KRAS G12C FRET IC50. In short, it runs like this:
as §2

The next test deals with NRAS Q61R (Homo sapiens (Human), UniProt P01111+P62937, Q61R). The description is as above. It is filed as biochemical. The method in brief: as §1
In the next test the target is NRAS Q61K (Homo sapiens (Human), UniProt P01111+P62937, Q61K). Described as above. The test is classed as biochemical. In short, it runs like this: as §1
A further test has as its target KRAS G13C (Homo sapiens (Human), UniProt P01116+P62937, G13C). Described as above. The test is classed as biochemical. Conditions: read-out: KRAS G13C FRET IC50. The method in brief: as §2
A further test relates to NCI-H358 (K-Ras G12C). Kind of test: CellTiter-Glo cell viability assay, NCI-H358. The test is classed as cell-based, human. The note with it: Homo sapiens, NCI-H358, 120 h, 5-day treatment; read-out: H358 Cell Viability assay data (K-Ras G12C, IC50). The method in brief:
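Viability read-out was luminescent (CellTiter-Glo) on day 5 of compound exposure in K-Ras G12C NCI-H358 cells. Values were expressed as percent of mean DMSO signal and fitted with a four-parameter logistic curve.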

The test system of test [1] is NCI-H358 cells (K-Ras G12C). Kind of test: CellTiter-Glo cell viability, NCI-H358. The test is classed as cell-based, human. The note with it: Homo sapiens, NCI-H358, 120 h, K-Ras G12C, 5-day treatment; read-out: H358 Cell Viability IC50. The method in brief:
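Viability read by luminescence on day 5 after direct compound addition to cells, following ~30 min room-temperature equilibration. Values expressed as percent of mean DMSO signal, curves fitted with a four-parameter logistic model.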

Sequence of KRAS G12C (P01116-2 other isoform, or with tags, fused parts or gaps G12C): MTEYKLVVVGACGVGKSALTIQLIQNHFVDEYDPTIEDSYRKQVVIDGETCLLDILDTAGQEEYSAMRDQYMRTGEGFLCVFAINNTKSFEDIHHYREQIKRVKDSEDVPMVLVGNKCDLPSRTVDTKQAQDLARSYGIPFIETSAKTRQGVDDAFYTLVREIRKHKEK
Sequence of KRAS G12C (P62937 whole entry): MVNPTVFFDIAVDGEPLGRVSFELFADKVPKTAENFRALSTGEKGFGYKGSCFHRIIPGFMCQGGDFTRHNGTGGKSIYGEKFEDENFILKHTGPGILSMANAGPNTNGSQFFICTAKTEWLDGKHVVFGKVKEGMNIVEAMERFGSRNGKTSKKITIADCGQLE
Sequence of KRAS G13D (P01116 other isoform, or with tags, fused parts or gaps G13D): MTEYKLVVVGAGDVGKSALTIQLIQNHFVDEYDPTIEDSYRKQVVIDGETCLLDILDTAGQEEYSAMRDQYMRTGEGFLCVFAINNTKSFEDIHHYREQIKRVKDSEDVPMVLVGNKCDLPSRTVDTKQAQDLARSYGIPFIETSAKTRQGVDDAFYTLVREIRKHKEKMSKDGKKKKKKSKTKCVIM
Sequence of KRAS G13D (P62937 whole entry): as the sequence (P62937 whole entry) above
Sequence of NRAS G12C (P01111 whole entry G12C): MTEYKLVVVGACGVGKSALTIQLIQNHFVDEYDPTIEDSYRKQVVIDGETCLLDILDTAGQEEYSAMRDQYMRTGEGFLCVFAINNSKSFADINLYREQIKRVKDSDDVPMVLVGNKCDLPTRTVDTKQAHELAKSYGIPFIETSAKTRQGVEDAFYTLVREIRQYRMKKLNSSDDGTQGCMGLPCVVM
Sequence of NRAS G12C (P62937 whole entry): as the sequence (P62937 whole entry) above
Sequence of KRAS G12V (P01116 other isoform, or with tags, fused parts or gaps G12V): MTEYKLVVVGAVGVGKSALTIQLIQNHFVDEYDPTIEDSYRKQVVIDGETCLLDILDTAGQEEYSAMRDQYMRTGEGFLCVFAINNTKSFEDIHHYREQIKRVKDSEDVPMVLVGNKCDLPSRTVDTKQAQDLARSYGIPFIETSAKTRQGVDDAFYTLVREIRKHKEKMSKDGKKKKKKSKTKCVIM
Sequence of KRAS G12V (P62937 whole entry): as the sequence (P62937 whole entry) above
Sequence of KRAS G13C (P01116 other isoform, or with tags, fused parts or gaps G13C): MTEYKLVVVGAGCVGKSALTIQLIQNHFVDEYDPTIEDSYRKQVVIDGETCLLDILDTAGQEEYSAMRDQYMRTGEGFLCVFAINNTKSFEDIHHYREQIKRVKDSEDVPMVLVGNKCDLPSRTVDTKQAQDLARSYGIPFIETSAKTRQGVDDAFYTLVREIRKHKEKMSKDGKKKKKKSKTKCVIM
Sequence of KRAS G13C (P62937 whole entry): as the sequence (P62937 whole entry) above
Sequence of KRAS WT (P01116 other isoform, or with tags, fused parts or gaps): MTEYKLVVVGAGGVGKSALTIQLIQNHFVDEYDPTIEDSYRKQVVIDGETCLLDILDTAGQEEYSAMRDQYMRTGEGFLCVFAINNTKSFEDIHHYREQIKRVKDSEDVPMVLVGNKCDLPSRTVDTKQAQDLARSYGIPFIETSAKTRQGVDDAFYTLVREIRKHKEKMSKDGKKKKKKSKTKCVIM
Sequence of KRAS WT (P62937 whole entry): as the sequence (P62937 whole entry) above
Sequence of NRAS Q61R (P01111 whole entry Q61R): as the sequence (P01111 whole entry G12C) above, with C12G, Q61R counted along it
Sequence of NRAS Q61R (P62937 whole entry): as the sequence (P62937 whole entry) above
Sequence of NRAS Q61K (P01111 whole entry Q61K): as the sequence (P01111 whole entry G12C) above, with C12G, Q61K counted along it
Sequence of NRAS Q61K (P62937 whole entry): as the sequence (P62937 whole entry) above
Sequence of KRAS G12D (P01116 other isoform, or with tags, fused parts or gaps G12D): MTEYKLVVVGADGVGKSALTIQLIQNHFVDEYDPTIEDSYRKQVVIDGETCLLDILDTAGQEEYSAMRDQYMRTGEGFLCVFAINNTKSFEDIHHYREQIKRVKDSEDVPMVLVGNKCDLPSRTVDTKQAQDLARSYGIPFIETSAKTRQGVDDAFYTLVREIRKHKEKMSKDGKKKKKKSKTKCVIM
Sequence of KRAS G12D (P62937 whole entry): as the sequence (P62937 whole entry) above
Sequence of NRAS WT (P01111 whole entry): as the sequence (P01111 whole entry G12C) above, with C12G counted along it
Sequence of NRAS WT (P62937 whole entry): as the sequence (P62937 whole entry) above
Sequence of KRAS G12S (P01116 other isoform, or with tags, fused parts or gaps G12S): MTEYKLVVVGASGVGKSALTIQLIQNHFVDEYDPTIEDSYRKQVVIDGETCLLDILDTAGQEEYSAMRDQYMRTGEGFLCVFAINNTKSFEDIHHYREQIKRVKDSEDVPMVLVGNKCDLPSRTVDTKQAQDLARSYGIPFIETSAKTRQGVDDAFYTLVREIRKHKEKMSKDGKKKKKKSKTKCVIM
Sequence of KRAS G12S (P62937 whole entry): as the sequence (P62937 whole entry) above
Sequence of KRAS Q61H (P01116 other isoform, or with tags, fused parts or gaps Q61H): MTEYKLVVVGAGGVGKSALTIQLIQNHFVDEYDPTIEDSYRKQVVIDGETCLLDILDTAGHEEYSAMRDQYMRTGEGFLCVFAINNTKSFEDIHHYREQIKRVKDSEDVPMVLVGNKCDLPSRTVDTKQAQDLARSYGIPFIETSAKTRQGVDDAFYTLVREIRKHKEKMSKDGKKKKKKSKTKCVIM
Sequence of KRAS Q61H (P62937 whole entry): as the sequence (P62937 whole entry) above

In the case of `CCn1c(-c2cccnc2[C@H](C)OC)c2c3cc(ccc31)-c1cc(O)cc(c1)C[C@H](NC(=O)[C@H](C(C)C)N(C)C(=O)C13CC(CO1)C3)C(=O)N1CCC[C@H](N1)C(=O)OCC(C)(C)C2` [Compound A406], the IC50 lay in the range of 10 to 100 nM at NRAS G12C; 10 to 100 nM at NRAS WT; 100 to 1000 nM on KRAS G12V; 10 to 100 nM on KRAS G12S; 10 to 100 nM on KRAS WT; 100 to 1000 nM on KRAS G12D. The IC50 on KRAS Q61H was 10 to 100 nM; at KRAS G13D, 100 to 1000 nM; on KRAS G12C it was 10 to 100 nM; against NRAS Q61R, 100 to 1000 nM; against NRAS Q61K, 100 to 1000 nM; at KRAS G13C, 10 to 100 nM. Further, the IC50 (in the test with NCI-H358 (K-Ras G12C); in test [1]) was 10 to 100 nM each time.

`CCn1c(-c2cc(N3CCN(C)CC3)cnc2[C@H](C)OC)c2c3cc(ccc31)-c1csc(n1)C[C@H](NC(=O)[C@H](C(C)C)N(C)C(=O)[C@@H]1CCCS1(=O)=O)C(=O)N1CCC[C@H](N1)C(=O)OCC(C)(C)C2` [Compound A440]: the IC50 lay in the range of 100 to 1000 nM at NRAS G12C; 100 to 1000 nM at NRAS WT; 1000 to 10000 nM on KRAS G12V; 1000 to 10000 nM on KRAS G12S; 100 to 1000 nM on KRAS WT; 1000 to 10000 nM on KRAS G12D. The IC50 against KRAS Q61H fell in the range of 100 to 1000 nM; at KRAS G13D it was 1000 to 10000 nM; on KRAS G12C, 100 to 1000 nM; on NRAS Q61R, 100 to 1000 nM; on NRAS Q61K, 100 to 1000 nM; at KRAS G13C, 1000 to 10000 nM. Further, the IC50 in the test with NCI-H358 (K-Ras G12C) is under 10 nM; in test [1], 10 to 100 nM.

Regarding `CCn1c(-c2cccnc2[C@H](C)OC)c2c3cc(ccc31)-c1csc(n1)C[C@H](NC(=O)[C@H](C(C)C)N(C)C(=O)N1CC(O)(CN(C)C)C1)C(=O)N1CCC[C@H](N1)C(=O)OCC(C)(C)C2` [Compound A597], the IC50 on NRAS G12C lay in the range of 100 to 1000 nM; at NRAS WT it was 100 to 1000 nM; at KRAS G12V, 100 to 1000 nM; at KRAS G12S, 100 to 1000 nM; on KRAS WT it was 100 to 1000 nM; on KRAS G12D, 1000 to 10000 nM. Further, the IC50 on KRAS Q61H, on KRAS G13D, on KRAS G12C, at NRAS Q61R, on NRAS Q61K and on KRAS G13C was 100 to 1000 nM throughout. Further, the IC50 is under 10 nM in the test on NCI-H358 (K-Ras G12C) and 10 to 100 nM in test [1].

Regarding `CCn1c(-c2cccnc2[C@H](C)OC)c2c3cc(ccc31)-c1csc(n1)C[C@H](NC(=O)[C@H](C(C)C)N(C)C(=O)N1C[C@H]3CN(C)CC[C@H]31)C(=O)N1CCC[C@H](N1)C(=O)OCC(C)(C)C2` [Compound A462], the IC50 at NRAS G12C is 100 to 1000 nM; against NRAS WT, 1000 to 10000 nM; at KRAS G12V, 1000 to 10000 nM; on KRAS G12S, 1000 to 10000 nM; at KRAS WT, 1000 to 10000 nM; on KRAS G12D it was 1000 to 10000 nM. In addition, the IC50 was in the range of 100 to 1000 nM against KRAS Q61H; 1000 to 10000 nM on KRAS G13D; 100 to 1000 nM on KRAS G12C; 1000 to 10000 nM on NRAS Q61R; 100 to 1000 nM on NRAS Q61K; 100 to 1000 nM on KRAS G13C. The IC50 in the test with NCI-H358 (K-Ras G12C) is under 10 nM; in test [1] it was 100 to 1000 nM.

For `CCn1c(-c2cccnc2[C@H](C)OC)c2c3cc(ccc31)-c1csc(n1)C[C@H](NC(=O)[C@H](C(C)C)N(C)C(=O)N(C)C1(C)COC1)C(=O)N1CCC[C@H](N1)C(=O)OCC(C)(C)C2` [Compound A527], the IC50 at NRAS G12C was in the range of 100 to 1000 nM; against NRAS WT it was 100 to 1000 nM; on KRAS G12V, 1000 to 10000 nM; at KRAS G12S it was 100 to 1000 nM; on KRAS WT, 100 to 1000 nM; on KRAS G12D, 1000 to 10000 nM. Besides, the IC50 against KRAS Q61H is 100 to 1000 nM; at KRAS G13D it was 1000 to 10000 nM; on KRAS G12C it was 100 to 1000 nM; at NRAS Q61R it was 100 to 1000 nM; against NRAS Q61K it was 100 to 1000 nM; on KRAS G13C it was 1000 to 10000 nM. For the same compound, the IC50 with NCI-H358 (K-Ras G12C) was under 10 nM; in test [1], 10 to 100 nM.

The values are drawn from patent US20250195521A1 (Revolution Medicines, Inc., priority 2020, published 2025).
